Reference: paper PMC11707430, “Novel antibiotics against Staphylococcus aureus without detectable resistance by targeting proton motive force and FtsH” (MedComm, 2025)
Read-outs that look alike come from different tables or passages of the source.

Columns and labels:
[1] = Pharmacokinetics determination; assay type: in vivo; set-up: bioavailability / Vd / clearance / AUC(0-t) / AUC(0-inf) / MRT last / MRT inf: dose or concentration left out as unconfirmed; conditions: female, ICR, mouse, plasma, mice; for MRT last: read-out: MRT(0-t); for MRT inf: read-out: MRT(0-∞)
Description: Pharmacokinetics determination. […] Blood samples were extracted from the jugular vein at intervals of 0.083, 0.25, 0.5, 1, 2, 4, 8, and 24h post-treatment, respectively. The plasma was separated following centrifugation at 6800 × g for 6 min. Concentrations of these compounds in the plasma were quantified by using the LC-MS/MS-04 instrument (TQ4000, JEOL, Japan), and pharmacokinetic parameters were calculated by using Phoenix WinNonlin 7.0 software (Certara, Princeton, NJ, USA)^37.

TA 100 = test: Ames test; assay type: cell-based, Salmonella typhimurium
Description: Ames test. Genotoxicity of the compounds was determined by Ames Kit (IPHASE, Beijing, China) containing Salmonella typhimurium (TA97a, TA98, TA100, and TA1535) and E. coli WP2 uvrA (pKM101). Diclofenac and 2-aminofluorene were used as positive controls for TA97a and TA98. Methyl methanesulfonate and 2-aminofluorene were used as positive controls for TA100. Methyl methanesulfonate and 2-aminoanthracene were used as positive controls for WP2 uvrA (pKM101). NaN3 and 2-aminoanthracene were used as positive controls for TA1535. The bottom and top layer culture medium, and S9 mixed solution were prepared according to the manufacturer’s instructions. After incubation at 37℃ for 48h, the colonies were counted.

RAW264.7 = test: Inflammatory factors inhibition; assay type: cell-based; conditions: LPS-treated RAW264.7, 16 μg/mL, 12 h
Description: Inflammatory factors inhibition by compounds. Cell line of RAW264.7 was cultured in DMEM medium with 10% FBS. After incubation at 37 ℃ 5% CO2 to log phase, the attached cells were washed with 1× PBS and added with 1 μg/mL of LPS. After incubation at 37 ℃ 5% CO2 for 30 min, 16 μg/mL of C218-0546 or STK848198 was added to each well. The cells were further cultured for 12h, and the cell precipitate was collected for qRT-PCR while the supernatant was collected for ELISA.
For gene expression determination. One milliliter of Trizol was added to lysis the cells. Then, the suspension was incubated with 200 μL chloroform for 3 min. After centrifugation at 12000 rpm 4℃ for 15 min, the aqueous phase was removed to RNase-free tubes, and added with equal volume of isopropanol. After centrifugation at 12000 rpm 4℃, the RNA precipitation was collected and wash with 75% ethanol. […] Absorbance at 260nm and 280 nm was detected to determine the RNA concentration and purity. cDNA was synthesized with HiFiScript cDNA Synthesis Kit (CoWin Biosciences, Beijing, China) according to the manufacture’s specification, and UltraSYBR Mixture (2×, CoWin Biosciences, Beijing, China) was used for qPCR determination.
ELISA kit (Proteintech, Wuhan, China) was used for cytokines production quantification. […] Then, 100 μL substrate was added to each well and the absorbance at 450 nm was determined.

[2] = Plasma protein binding rate; assay type: in vitro ADME; conditions: human plasma
Description: Plasma protein binding rate calculation. Human plasma was purchased from IPHASE (Beijing, China). C218-0546 or STK848198 was added into human plasma to a final concentration of 0.5, 2 and 5 μg/mL, respectively. Warfarin sodium and PBS was used as positive control and blank control, respectively. The samples were added to the upper side of the dialysis membrane (IPHASE, Beijing, China) and PBS was added to its lower side. After incubation at room temperature for 12h, the concentration of C218-0546 and STK848198 at the both sides were detected by the LC-MS. The plasma protein binding rate (%) was calculated as: (1-Cf/Cp) × 100%. Cf, concentration of free compounds (lower side). Cp, plasma protein binding compounds (upper side).

Which results are given for `Cc1nc2c(-c3ccc(Cl)cc3)cnn2c(O)c1Cc1ccccc1` [STK848198]?
AUC(0-inf) ([1]; ip): 38300 ± 7020 ng·h/mL; AUC(0-t) ([1]; ip): 38300 ± 7020 ng·h/mL; Cmax ([1]; ip): 39000 ± 5470 ng/mL; bioavailability ([1]; ip): 87%; MRT last ([1]; ip, i.p.): 1.02 ± 0.16 h; MRT inf ([1]; ip, i.p.): 1.17 ± 0.21 h; half-life ([1]; ip, i.p., read-out: T1/2 (converted)): 3.15 ± 2.38 h; Tmax ([1]; ip, i.p., read-out: Tmax): 0.33 ± 0.14 h; AUC(0-inf) ([1]; iv): 22400 ± 1990 ng·h/mL; AUC(0-t) ([1]; iv): 22000 ± 1960 ng·h/mL; C0 ([1]; iv): 51900 ± 1010 ng/mL; Cmax ([1]; iv): 40100 ± 2180 ng/mL; clearance ([1]; iv): 7.48 ± 0.69 mL/min/kg; MRT last ([1]; iv, i.v.): 0.67 ± 0.1 h; MRT inf ([1]; iv, i.v.): 0.86 ± 0.05 h; half-life ([1]; iv, i.v., read-out: T1/2 (converted)): 2.54 ± 0.7 h; Tmax ([1]; iv, i.v., read-out: Tmax): 0.08 h; Vd ([1]; iv, i.v., read-out: Vss): 0.38 ± 0.02 L/kg; Vd ([1]; iv, i.v., read-out: Vz): 1.66 ± 0.57 L/kg; Tmax ([1]; other: range over s.c., i.v., i.p. and p.o., 30 mg/kg, all the administration routes, read-out: T max (range)): 0.08 to 0.33 h; half-life ([1]; other: range over s.c., i.v., i.p. and p.o., 30 mg/kg, all the administration routes, read-out: half-life (range)): 2.54 to 7.65 h; AUC(0-inf) ([1]; po): 17800 ± 10500 ng·h/mL; AUC(0-t) ([1]; po): 17800 ± 10500 ng·h/mL; Cmax ([1]; po): 18700 ± 3430 ng/mL; bioavailability ([1]; po): 40.4%; MRT last ([1]; po, p.o.): 1.62 ± 0.75 h; MRT inf ([1]; po, p.o.): 2.21 ± 0.79 h; half-life ([1]; po, p.o., read-out: T1/2 (converted)): 3.43 ± 1.53 h; Tmax ([1]; po, p.o., read-out: Tmax): 0.25 h; AUC(0-inf) ([1]; sc): 18000 ± 3640 ng·h/mL; AUC(0-t) ([1]; sc): 18000 ± 3640 ng·h/mL; Cmax ([1]; sc): 11600 ± 6890 ng/mL; bioavailability ([1]; sc): 40.9%; MRT last ([1]; sc, s.c.): 3.5 ± 1.22 h; MRT inf ([1]; sc, s.c.): 5.19 ± 2.09 h; half-life ([1]; sc, s.c., read-out: T1/2 (converted)): 7.65 ± 1.16 h; Tmax ([1]; sc, s.c., read-out: Tmax): 0.33 ± 0.14 h; CFU(x±SD) (TA 100; TA 100, +S9, 25 μg/well): 8 ±2 CFU; Fold Change (TA 100; TA 100, +S9, 25 μg/well): 0.2; CFU(x±SD) (TA 100; TA 100, +S9, 50 μg/well): 7 ±1 CFU; Fold Change (TA 100; TA 100, +S9, 50 μg/well): 0.2; CFU(x±SD) (TA 100; TA 100, +S9, 100 μg/well): 9 ±3 CFU; Fold Change (TA 100; TA 100, +S9, 100 μg/well): 0.3; CFU(x±SD) (TA 100; TA 100, +S9, 200 μg/well): 8±3 CFU; Fold Change (TA 100; TA 100, +S9, 200 μg/well): 0.2; CFU(x±SD) (TA 100; TA 100, +S9, 400 μg/well): 8 ±2 CFU; Fold Change (TA 100; TA 100, +S9, 400 μg/well): 0.2; CFU(x±SD) (TA 100; TA 100, -S9, 25 μg/well): 5±2 CFU; Fold Change (TA 100; TA 100, -S9, 25 μg/well): 0.2; CFU(x±SD) (TA 100; TA 100, -S9, 50 μg/well): 6±2 CFU; Fold Change (TA 100; TA 100, -S9, 50 μg/well): 0.2; CFU(x±SD) (TA 100; TA 100, -S9, 100 μg/well): 5±2 CFU; Fold Change (TA 100; TA 100, -S9, 100 μg/well): 0.1; CFU(x±SD) (TA 100; TA 100, -S9, 200 μg/well): 9±3 CFU; Fold Change (TA 100; TA 100, -S9, 200 μg/well): 0.3; CFU(x±SD) (TA 100; TA 100, -S9, 400 μg/well): 4±2 CFU; Fold Change (TA 100; TA 100, -S9, 400 μg/well): 0.1; inflammatory cytokines production (IL-1β, IL-6, TNFα decreased, IL-10 enhanced) (RAW264.7): inhibit inflammatory progress; plasma protein binding rate [2]: high
